{"source": "patent US20240269223A1", "about": "“PROPHYLACTIC OR THERAPEUTIC AGENT FOR ACUTE RENAL FAILURE” (KYOWA HAKKO BIO CO., LTD., priority 2021, published 2024)", "key": {"[1]": {"system": "rat bilateral kidney simultaneous ligation ischemic acute renal injury model", "assay": "Rat bilateral kidney simultaneous ligation ischemic acute renal injury model", "assay_type": "in vivo", "settings": "for Blood creatinine (CRE), before administration / Blood urea nitrogen (UN), before administration: baseline, day before administration; for Blood creatinine (CRE), before administration / Blood urea nitrogen (UN), before administration / GDF-15 (growth differentiation factor), 48 hours after ischemia reperfusion / Blood creatinine (CRE), 48 hours after ischemia reperfusion / Blood urea nitrogen (UN), 48 hours after ischemia reperfusion: plasma; for GDF-15 (growth differentiation factor), 48 hours after ischemia reperfusion: ELISA, control 1532 ± 246, placebo surgery 75.2 ± 4.3; for Blood creatinine (CRE), 48 hours after ischemia reperfusion: control 2.98 ± 0.56, placebo surgery 0.24 ± 0.01; for Blood urea nitrogen (UN), 48 hours after ischemia reperfusion: control 154.6 ± 19.5, placebo surgery 14.4 ± 1.1", "method": "GSSSG dihydrate produced by the method described in Patent Literature 1 was carefully crushed in a mortar for 10 minutes or longer. A required amount of GSSSG dihydrate was weighed out. 0.5 w/v % methylcellulose (hereinafter abbreviated to as MC) was added to the crushed GSSSG dihydrate to prepare a suspension at a concentration of 10 mg/mL, and used as an administration sample for a high-dose administration group. The 10 mg/mL suspension was diluted with 0.5 w/v % MC to prepare a 4 mg/mL suspension, and used as an administration sample for a low-dose administration group.\nIn the test, 5-week old male SD rats (body weight 136 to 154 g) were used. An 8-day preliminary breeding period was set for the obtained animals. Rats with no abnormalities in body weight change and general condition were used for grouping.\nThe administration method was oral administration. Forced oral administration was performed using a disposable polypropylene syringe with a metal oral gavage tube for rats. The amount of solution administered was 5 ml/kg for both the high dose group and the low dose group based on the body weight closest to that of the day of administration. Administration was performed a total of 5 times: 1 day before, 2 days before, and 3 days before the ischemia treatment was performed, 1 hour before the ischemia treatment, and 2 hours after the reperfusion treatment.\nThe ischemia and reperfusion treatments were performed as follows. Anesthesia was performed by intraperitoneal administration of 45 mg/kg (1 mL/kg) of pentobarbital sodium and subcutaneous administration of 1 mg/kg (1 mL/kg) of butorphanol tartrate. Both dorsal parts where the kidneys were located were shaved. Then, the animals were treated on a heater mat. The surgical site was disinfected with about 70% of an alcohol and then incised using scissors. After both kidneys of the animals in Group 2 to Group 4 in Table 3 were exposed, the renal arteries and veins of the left kidney and the right kidney in order were clamped using Klemme (clip power 120 g) for 40 minutes. During clamping, the kidney was returned to the body in order to prevent kidney desiccation. During reperfusion, it was confirmed that the blood color of the kidney was returned to normal (red), and the laparotomy wound was closed and disinfected with Isodine. In the animals of the Group 1, both kidneys were exposed, and returned to the peritoneal cavity without ischemia treatment, and the laparotomy wound was closed and disinfected with Isodine 40 minutes after incision. After suturing, the rats were returned to the original breeding cage.\nOn the day before administration, without anesthesia, about 0.25 mL of blood was collected from the tail vein using a heparin Na-treated capillary (DRUMMOND). The collected blood was cooled on ice and then separated using a centrifuge (4° C., 2,200×g, for 15 minutes), and the UN concentration and the CRE concentration were measured using the obtained plasma.\n48 hours after the reperfusion treatment, under isoflurane anesthesia, all blood was collected from abdominal aorta, using a winged injection needle and a heparin Na-treated vacuum blood collection tube. The collected blood was cooled on ice and then separated using a centrifuge (4° C., 2,150×g, for 15 minutes), and UN, CRE and GDF-15 (Mouse/Rat GDF-15 Quantikine ELISA Kit, R&D Systems, Inc) were measured using the obtained plasma."}, "[2]": {"system": "rat ischemic acute renal injury model with unilateral nephrectomy", "assay": "Rat ischemic acute renal injury model with unilateral nephrectomy", "assay_type": "in vivo", "settings": "200 mg/kg GSSSG intraperitoneal once a day x4 (day -4 to -1) before 40 min ischemia/reperfusion, versus control group", "method": "GSSSG dihydrate produced by the method described in Patent Literature 1 was carefully crushed in a mortar for 10 minutes or longer. 1,333 mg (1,250 mg in terms of anhydride) of GSSSG dihydrate was weighed out. 1,333 mg of the crushed GSSSG dihydrate was added to 40 mL of a normal saline, and the mixture was stirred in a suspended state for 5 minutes. 0.25 to 0.50 g of sodium bicarbonate was added to the suspension and dissolved. This GSSSG solution was transferred to a measuring cylinder, and a normal saline was added to make up 50 mL to obtain a preparation solution (final concentration: 25 mg/mL). The obtained preparation solution was filtered with a filter (0.22 μm filter) and used as an administration sample.\nIn the test, 4-week old male SD rats (body weight 99 to 113 g)\nwere used. A 16-day preliminary breeding period was set for the obtained animals. Rats with no abnormalities in body weight change and general condition were used for grouping.\nOne kidney was removed from rats in which no abnormalities were observed after the preliminary breeding period by the following method. […]\nThe administration sample was administered into the peritoneal cavity of rats from which the right kidney was removed using a disposable polypropylene syringe with an injection needle. […] The amount of solution administered was calculated at 8 mL/kg based on the body weight on the first day of administration. […]"}}}
{"smiles": "N[C@@H](CCC(=O)N[C@@H](CSSSC[C@H](NC(=O)CC[C@H](N)C(=O)O)C(=O)NCC(=O)O)C(=O)NCC(=O)O)C(=O)O", "note": "[GSSSG, glutathione trisulfide]", "values": [{"measurement": "Blood creatinine (CRE), before administration", "setting": "[1]; 20 mg/kg oral group", "value": "0.21 ± 0.00", "unit": "mg/dL"}, {"measurement": "Blood urea nitrogen (UN), before administration", "setting": "[1]; 20 mg/kg oral group", "value": "13.5 ± 0.5", "unit": "mg/dL"}, {"measurement": "GDF-15 (growth differentiation factor), 48 hours after ischemia reperfusion", "setting": "[1]; 20 mg/kg oral x5", "value": "1673 ± 595", "unit": "pg/mL"}, {"measurement": "Blood creatinine (CRE), 48 hours after ischemia reperfusion", "setting": "[1]; 20 mg/kg oral x5", "value": "2.29 ± 0.52", "unit": "mg/dL"}, {"measurement": "Blood urea nitrogen (UN), 48 hours after ischemia reperfusion", "setting": "[1]; 20 mg/kg oral x5", "value": "136.8 ± 24.6", "unit": "mg/dL"}, {"measurement": "therapeutic effect", "setting": "[1]; 50 mg/kg oral administration group", "value": "a therapeutic effect was exhibited"}, {"measurement": "GDF-15 concentration, change versus control group", "setting": "[1]; 50 mg/kg oral group, 48 hours after reperfusion", "value": "slightly decreased"}, {"measurement": "Blood creatinine (CRE), before administration", "setting": "[1]; 50 mg/kg oral group", "value": "0.20 ± 0.00", "unit": "mg/dL"}, {"measurement": "Blood urea nitrogen (UN), before administration", "setting": "[1]; 50 mg/kg oral group", "value": "11.5 ± 0.4", "unit": "mg/dL"}, {"measurement": "GDF-15 (growth differentiation factor), 48 hours after ischemia reperfusion", "setting": "[1]; 50 mg/kg oral x5", "value": "1327 ± 300", "unit": "pg/mL"}, {"measurement": "Blood creatinine (CRE), 48 hours after ischemia reperfusion", "setting": "[1]; 50 mg/kg oral x5", "value": "2.07 ± 0.45", "unit": "mg/dL"}, {"measurement": "Blood urea nitrogen (UN), 48 hours after ischemia reperfusion", "setting": "[1]; 50 mg/kg oral x5", "value": "106.2 ± 16.5", "unit": "mg/dL"}, {"measurement": "UN value, change versus control group", "setting": "[1]; GSSSG administration group, 20 and 50 mg/kg oral, 48 hours after reperfusion, Table 5", "value": "decreased in a dose-dependent manner"}, {"measurement": "CRE value, change versus control group", "setting": "[1]; GSSSG administration group, 20 and 50 mg/kg oral, 48 hours after reperfusion, Table 6", "value": "decreased in a dose-dependent manner"}, {"measurement": "UN value (urea nitrogen concentration in plasma)", "setting": "[2]; FIG. 1", "value": "decreased"}, {"measurement": "CRE value (creatinine concentration in plasma)", "setting": "[2]; FIG. 2", "value": "decreased"}]}
